According to US8030298B2, “17β-HSD1 and STS inhibitors” (Abbott Products GmbH, priority 2005, dated 2011):

Target: T1, recombinant human 17β-hydroxysteroid dehydrogenase type 1 (Homo sapiens, UniProt P14061)
T1 construct: made in house; host or cells: Sf9 insect cells (baculovirus, Bac to Bac Expression System)
T1 sequence (P14061 1-328): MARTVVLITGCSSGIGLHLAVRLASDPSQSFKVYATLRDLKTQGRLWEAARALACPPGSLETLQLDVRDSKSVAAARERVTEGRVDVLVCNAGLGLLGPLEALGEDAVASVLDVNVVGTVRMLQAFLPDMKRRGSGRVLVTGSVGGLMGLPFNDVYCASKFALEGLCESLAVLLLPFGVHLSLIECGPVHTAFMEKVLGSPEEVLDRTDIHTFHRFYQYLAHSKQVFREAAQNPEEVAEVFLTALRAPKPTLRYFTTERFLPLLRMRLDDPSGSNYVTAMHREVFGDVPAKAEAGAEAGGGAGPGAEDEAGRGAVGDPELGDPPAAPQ
Assay: Inhibition of recombinant human 17β-hydroxysteroid dehydrogenase type 1 (3H-estrone to estradiol conversion, HPLC)
Format: biochemical
Settings: read-out: Inhibition of rec. 17β-HSD1 (% inhibition); for inhibition at 1 µM: 0.5 h, inhibitor concentration 1 μm; for inhibition at 0.1 µM: inhibitor concentration 100 nM
Description: 17β-HSD1 purification: Recombinant baculovirus was generated by the “Bac to Bac Expression System” (Invitrogen). Recombinant bacmid was transfected to Sf9 insect cells using “Cellfectin Reagent” (Invitrogen). 60 h later cells were harvested; the microsomal fraction was isolated as described by Puranen et al. (1994). Aliquots were stored frozen until determination of enzymatic activity.
Assay—Inhibition of recombinant human 17β-hydroxysteroid dehydrogenase type 1: Recombinant protein (0.1 μg/ml) was incubated in 20 mM KH2PO4 pH 7.4 with 30 nM 3H-estrone and 1 mM NADPH for 30 min at RT, in the presence of potential inhibitors at concentrations of 1 μM or 0.1 μM. Inhibitor stock solutions were prepared in DMSO. Final concentration of DMSO was adjusted to 1% in all samples. The enzyme reaction was stopped by addition of 10% trichloroacetic acid (final concentration). Samples were centrifuged in a microtiter plate at 4000 rpm for 10 min. Supernatants were applied to reverse phase HPLC on a Waters Symmetry C18 column, equipped with a Waters Sentry Guard column. Isocratic HPLC runs were performed at RT at a flow rate of 1 ml/min of acetonitrile:water 48:52 as running solvent. Radioactivity was monitored in the eluate by a Packard Flow Scintillation Analyzer. Total radioactivity for estrone and estradiol were determined in each sample and percent conversion of estrone to estradiol was calculated according to the following formula:
Percent inhibition was calculated as follows: % inhibition=100−% conversion

Row | Structure (SMILES) | inhibition at 1 µM | inhibition at 0.1 µM
1 | C[C@]12CC[C@@H]3c4ccc(O)cc4CC[C@H]3[C@@H]1[C@@H](CCCC(=O)NC1CCCCC1)CC2(F)F [Compound 102] | 70.6% | 41.6%
2 | CCOc1cc2c(cc1O)CC[C@H]1[C@@H]3[C@@H](CCCC(=O)NCc4ccc5c(c4)OCO5)CC(=O)[C@@]3(C)CC[C@H]21 [Compound 45] | – | 54%
3 | COc1cc2c(cc1O)CC[C@H]1[C@@H]3[C@@H](CCCC(=O)NC4CCCCC4)CC(=O)[C@@]3(C)CC[C@H]21 [Compound 67] | 73.2% | 42.5%
4 | COc1ccc(CCN(C)C(=O)CC[C@@H]2CC(F)(F)[C@@]3(C)CC[C@@H]4c5ccc(O)cc5CC[C@H]4[C@H]23)cc1OC [Compound 134] | – | 50.5%
5 | COc1ccc(CCN(C)C(=O)CCC[C@H]2CC(F)(F)[C@@]3(C)CC[C@@H]4c5ccc(O)cc5CC[C@H]4[C@H]23)cc1OC [Compound 116] | – | 49.3%
6 | CCCc1cc2c(cc1O)CC[C@H]1[C@@H]3[C@H](CCCC(=O)N(C)Cc4ccccc4)CC(=O)[C@@]3(C)CC[C@H]21 [Compound 37] | – | 64%
7 | CCCc1cc2c(cc1O)CC[C@H]1[C@@H]3[C@H](CCCC(=O)N4CCOCC4)CC(=O)[C@@]3(C)CC[C@H]21 [Example 6, 3-Hydroxy-15β-(4-morpholin-4-yl-4-oxo-butyl)-2-propyl-estra-1,3,5(10)-trien-17-one] | – | 37.9%
8 | C[C@]12CC[C@@H]3c4ccc(O)cc4CC[C@H]3[C@@H]1[C@H](CCC(=O)NC1CCCCC1)CC2(F)F [Compound 121] | – | 63.6%
9 | C[C@]12CC[C@@H]3c4ccc(O)cc4CC[C@H]3[C@@H]1[C@H](CCCC(=O)N1CCOCC1)CC2(F)F [Example 90] | – | 63.5%
10 | COc1cc(CNC(=O)CC[C@@H]2CC(F)(F)[C@@]3(C)CC[C@@H]4c5ccc(O)cc5CC[C@H]4[C@H]23)cc(OC)c1 [Compound 128] | – | 21.2%
11 | C[C@]12CC[C@@H]3c4ccc(OS(=O)(=O)O)cc4CC[C@H]3[C@@H]1[C@H](CCCC(=O)N1CCOCC1)CC2=O [Example 164, 3-Sulphate-15β-(4-morpholin-4-yl-4-oxo-butyl)-estra-1,3,5(10)-trien-17-one] | 27% | 3%
12 | C[C@]12CC[C@@H]3c4ccc(O)cc4CC[C@H]3[C@@H]1[C@H](CCC(=O)NCc1ccc3c(c1)OCO3)CC2(F)F [Compound 122] | – | 34%
13 | C[C@]12CC[C@@H]3c4ccc(O)cc4CC[C@H]3[C@@H]1[C@H](CCCC(=O)N1CCOCC1)c1cn[nH]c12 [Example 162, 3-Hydroxy-15β-(4-morpholin-4-yl-4-oxo-butyl)-estra-1,3,5(10)-trien-[16,17-c]-pyrazole] | 93% | 63%
14 | CCCc1cc2c(cc1O)CC[C@H]1[C@@H]3[C@H](CCCC(=O)NCc4cccnc4)CC(=O)[C@@]3(C)CC[C@H]21 [Compound 32] | – | 50%
15 | Cc1cccc2c(CCNC(=O)CCC[C@H]3CC(F)(F)[C@@]4(C)CC[C@@H]5c6ccc(O)cc6CC[C@H]5[C@H]34)c[nH]c12 [Compound 111] | 68.3% | 50.6%
16 | CCOc1cc2c(cc1O)CC[C@H]1[C@@H]3[C@@H](CCCC(=O)NC4CCCCC4)CC(=O)[C@@]3(C)CC[C@H]21 [Compound 44] | – | 55.5%
17 | COc1cc2c(cc1O)CC[C@H]1[C@@H]3[C@@H](CCCC(=O)NCc4ccccc4)CC(=O)[C@@]3(C)CC[C@H]21 [Compound 71] | 70.6% | 45.8%
18 | C[C@]12CC[C@@H]3c4ccc(OCc5ccccc5)cc4CC[C@H]3[C@@H]1[C@H](C/C=C/C(=O)N1CCOCC1)c1cnoc12 [161′] | – | 21%
19 | CCN(CC)C(=O)CC[C@@H]1CC(F)(F)[C@@]2(C)CC[C@@H]3c4ccc(O)cc4CC[C@H]3[C@H]12 [Compound 133] | – | 71.4%

Row | Structure (SMILES) | inhibition at 1 µM | inhibition at 0.1 µM
20 | CCCc1cc2c(cc1O)CC[C@H]1[C@@H]3[C@H](CCCC(=O)Nc4ccc5cn[nH]c5c4)CC(=O)[C@@]3(C)CC[C@H]21 [Compound 40] | – | 72%
21 | CCCc1cc2c(cc1O)CC[C@H]1[C@@H]3[C@H](CCCC(=O)NCc4ccccc4)CC(=O)[C@@]3(C)CC[C@H]21 [Example 2, N-Benzyl-4-(3-hydroxy-17-oxo-2-propyl-estra-1,3,5(10)-trien-15β-yl)-butyramide] | – | 54.8%
22 | C[C@]12CC[C@@H]3c4ccc(O)cc4CC[C@H]3[C@@H]1[C@H](CCC(=O)NCc1ccccc1)CC2(F)F [Compound 125] | – | 29.2%
23 | Cc1cnc(NC(=O)CC[C@@H]2CC(F)(F)[C@@]3(C)CC[C@@H]4c5ccc(O)cc5CC[C@H]4[C@H]23)s1 [Example 93, 3-(17,17-Difluoro-3-hydroxy-estra-1,3,5(10)-trien-15β-yl)-N-(5-methyl-thiazol-2-yl)-propionamide] | – | 59.5%
24 | C[C@]12CC[C@@H]3c4ccc(O)cc4CC[C@H]3[C@@H]1[C@H](CCC(=O)NC1CC1)CC2(F)F [Compound 120] | – | 37.3%
25 | CCCc1cc2c(cc1O)CC[C@H]1[C@@H]3[C@H](CCCC(=O)NCc4ccc(F)cc4F)CC(=O)[C@@]3(C)CC[C@H]21 [Compound 42] | – | 53.3%
26 | C[C@]12CC[C@@H]3c4ccc(O)cc4CC[C@H]3[C@@H]1[C@@H](CCCC(=O)NCc1ccc(O)c(O)c1)CC2(F)F [Compound 109] | 70.7% | 35.1%
27 | CCCc1cc2c(cc1O)CC[C@H]1[C@@H]3[C@H](CCCC(=O)NCCc4c[nH]c5c(C)cccc45)CC(=O)[C@@]3(C)CC[C@H]21 [Compound 34] | – | 68.8%
28 | COc1cc2c(cc1O)CC[C@H]1[C@@H]3[C@@H](CCCC(=O)Nc4ccc5cn[nH]c5c4)CC(=O)[C@@]3(C)CC[C@H]21 [Compound 83] | 71.6% | 53.9%
29 | CCCc1cc2c(cc1O)CC[C@H]1[C@@H]3[C@H](CCCC(=O)N4CCCCC4)CC(=O)[C@@]3(C)CC[C@H]21 [Compound 36] | – | 56.9%
30 | CCCc1cc2c(cc1O)CC[C@H]1[C@@H]3[C@H](CCCC(=O)NCc4ccc5c(c4)OCO5)CC(=O)[C@@]3(C)CC[C@H]21 [Compound 30] | – | 39.8%
31 | C[C@]12CC[C@@H]3c4ccc(O)cc4CC[C@H]3[C@@H]1[C@@H](CCCC(=O)N1CCCCC1)CC2(F)F [Compound 113] | 76.9% | 47.2%
32 | CCCc1cc2c(cc1O)CC[C@H]1[C@@H]3[C@H](CCCC(=O)NCCOC)CC(=O)[C@@]3(C)CC[C@H]21 [Compound 41] | – | 25.9%
33 | COCCc1cc2c(cc1O)CC[C@H]1[C@@H]3[C@H](CCCC(=O)NCc4ccccc4)CC(=O)[C@@]3(C)CC[C@H]21 [Example 3, N-Benzyl-4-(3-hydroxy-2-(2-methoxy-ethyl)-17-oxo-estra-1,3,5(10)-trien-15β-yl)-butyramide] | – | 19.6%
34 | C[C@]12CC[C@@H]3c4ccc(O)cc4CC[C@H]3[C@@H]1[C@@H](CCCC(=O)N1CCOCC1)CC2(F)F [Example 91, 4-(17,17-Difluoro-3-hydroxy-estra-1,3,5(10)-trien-15α-yl)-1-morpholin-4-yl-butan-1-one] | – | 32%
35 | COc1cc2c(cc1O)CC[C@H]1[C@@H]3[C@@H](CCCC(=O)N4CCCCC4)CC(=O)[C@H]3CC[C@H]21 [Compound 78] | 72% | 40.6%
36 | C[C@]12CC[C@@H]3c4ccc(O)cc4CC[C@H]3[C@@H]1[C@H](CCC(=O)N1CCCCC1)CC2(F)F [Compound 131] | – | 19.8%
37 | CCCc1cc2c(cc1O)CC[C@H]1[C@@H]3[C@H](CCCC(=O)N(C)CCc4ccc(OC)c(OC)c4)CC(=O)[C@@]3(C)CC[C@H]21 [Compound 38] | – | 51%
38 | CCOc1cc2c(cc1O)CC[C@H]1[C@@H]3[C@@H](CCCC(=O)NCCc4c[nH]c5c(C)cccc45)CC(=O)[C@@]3(C)CC[C@H]21 [Compound 52] | 72.2% | 50%
